Data set [1] has as its system DC. Description: DC maturation marker expression by FACS. The class given is cell-based, mouse. Conditions: 100 μM, 6 hours. As for the experimental part:
DC were isolated and kept for 6 hours at 4 degrees (ctrlDC 4C) or culture to produce ctrlDC (37C), lpsDC itDC and it/lpsDC. Simultaneously cells were treated with the purinergic receptor agonists ATP (1 mM) and Bz-ATP (100 μM), purinergic receptors antagonists oxidized ATP (oATP, 100 μM) and suranim (100 μM), the adenosine monophosphate kinase (AMPK) stimulator AICAR (100 μM) and the enzyme Apyrase (200 U/ml) that catalyses ATP. Cells were harvested after 6 hours and the expression of the indicated markers was assessed by FACS.

The subject of data set [2] is DC. Description: Oxygen consumption rate (OCR) of DC. The conditions noted are these: 2 h activation; oATP with or without LPS co-treatment. The class given is cell-based, mouse. As for the experimental part:
Mitochondria oxygen consumption rate (OCR) was measured by using a YSI 5300 Clark-type electrode (Yellow Springs Instrument, Yellow Springs, Ohio, USA) or the XF24 Extracellular Flux Analyzer (Seahorse Bioscience, Billerica, Mass.) following the manufacturer's protocol. Primary cultured DC (10^6 cells/well) were used as described in the experiments.
The effect of the activation of DC on the O2 consumption rate (OCR) was tested to attempt to correlate increased OCR with increased immunogenicity.
(§1) The effect of direct inhibition of mitochondrial respiration, by an inhibitor of mitochondrial respiratory complex I, rotenone, was tested. […] Control DC were treated with LPS without OVA pulsing. T cell proliferation was analyzed by CFSE dilution on D3.

The test system of data set [3] is DC. In words: DC immunogenicity: OT-II T cell proliferation by CFSE dilution. In kind it is cell-based, mouse. Conditions: LPS plus 1 mM rotenone; CFSE dilution on D3. The method, then: as §1
For data set [4], the system named is DC.
The subject of data set [5] is DC. In words: Ex vivo Treg differentiation: Foxp3 induction in Tn by treated DC. The class given is cell-based, mouse.

For the compound `NC(=O)c1ncn([C@@H]2O[C@H](CO)[C@@H](O)[C@H]2O)c1N` [AICAR, 5-aminoimidazole-4-carboxamide-1-β-4-ribofuranoside], the “DC maturation (expression of markers)” value with DC [1] is recorded as “block DC maturation”.

In the case of `Nc1ncnc2c1ncn2[C@@H]1O[C@H](COP(=O)(O)OP(=O)(O)OP(=O)(O)O)[C@@H](O)[C@H]1O` [ATP, adenosine triphosphate], the “OCR of DC” value in the data set with DC [2] is “enhanced OCR levels in DCs”.

On to `C=C(C)[C@H]1Cc2c(ccc3c2O[C@@H]2COc4cc(OC)c(OC)cc4[C@@H]2C3=O)O1` [rotenone], for which the “T cell proliferation induced by antigen pulsed, LPS matured DC” value with DC [3] is recorded as “induced much less T cell proliferation”. Also, the “toxicity to DC (maturation markers CD80, C86, MHC-II and migration to CCL21)” value in the data set on DC [4] is recorded as “not toxic to DC”.

With Periodate-oxidized ATP [oATP], the “capacity to imprint DC with tolerogenic potential (percentages of Foxp3 and CD25 expressing cells)” value with DC [5] (DC incubated 2 hours, oATP 100 μM, 5 days in coculture) is listed as “significantly imprints DC with tolerogenic potential”. In addition, the “tolerogenic capacity compared with the combination of rapamycin and TGFβ” value with DC [5] (oATP 100 μM vs rapamycin 10 nM and TGFβ 2 ng/ml) was “matches or exceeds”. Further, the “DC maturation (expression of markers)” value in the data set with DC [1] was “block DC maturation”. Also, the “OCR of DC” value with DC [2] is recorded as “reduced OCR”.
